# From patent US20120083471A1, “Novel Compounds, Pharmaceutical Compositions Containing Same, Methods of Use for Same, and Methods for Preparing Same” (priority 2008, published 2012)
# “Also recorded” adds a separate entry of the source.
# Assays:
# DIO mice [1] = test: Acute single-dose FSG67 treatment of DIO mice (body weight, food intake); format: in vivo, mouse; details: single 20 mg/kg ip
# Excerpt: DIO and lean mouse models. All animal experimentation was done in accordance with guidelines on animal care and use as established by the Johns Hopkins University School of Medicine IACUC. DIO C57BL6J male mice were obtained from Jackson Laboratory (Bar Harbor, ME) and fed a synthetic diet comprised of 60% calories from fat, 20% from carbohydrate, and 20% from protein (5.2 kcal/g) post-weaning through the experimental procedures (D12492i, Research Diets, Inc., New Brunswick, N.J.). […]
# For acute studies, 6 DIO or lean mice were treated with a single dose of FSG67 (20 mg/kg, i.p.) approximately 3 hrs past lights-on. Animal weights and food consumption were measured 18 h after treatment. […] Body weight and food intake were measured daily. In one study, a cohort of mice was pair-fed with amounts consumed by the FSG67-treated animals and mice were monitored with indirect calorimetry (Oxymax Equal Flow System®, Columbus Instruments, Columbus, Ohio). Measurements of VO2 (ml/kg/hr) and VCO2 (ml/kg/hr) were performed and recorded every 15 min. The respiratory exchange ratio (RER) was calculated by Oxymax software, version 5.9, and is defined as ratio of VCO2 to VO2 33. […] Tissues were harvested immediately for RNA extraction; serum was collected and analyzed for glucose, cholesterol, and triglyceride measurements (Bioanalytics, Gaithersburg, Md.). […]
# DIO mice [2] = test: Serum chemistry and Oil Red O liver histology of 16 d treated DIO mice; format: in vivo, mouse
# Method: For acute studies, 6 DIO or lean mice were treated with a single dose of FSG67 (20 mg/kg, i.p.) approximately 3 hrs past lights-on. Animal weights and food consumption were measured 18 h after treatment. Following euthanization, the hypothalmuses were harvested to measure orexigenic and anorexigenic neuropeptide gene expression. In the chronic studies, DIO mice, 4-10 animals per group, were treated daily with FSG67 (5 mg/kg, i.p.) or with RMPI vehicle for the days indicated. Body weight and food intake were measured daily. In one study, a cohort of mice was pair-fed with amounts consumed by the FSG67-treated animals and mice were monitored with indirect calorimetry (Oxymax Equal Flow System®, Columbus Instruments, Columbus, Ohio). Measurements of VO2 (ml/kg/hr) and VCO2 (ml/kg/hr) were performed and recorded every 15 min. The respiratory exchange ratio (RER) was calculated by Oxymax software, version 5.9, and is defined as ratio of VCO2 to VO2 33. After completion of the treatment course, animals were euthanized by CO2 inhalation 4 hrs following the final dose of FSG67. Tissues were harvested immediately for RNA extraction; serum was collected and analyzed for glucose, cholesterol, and triglyceride measurements (Bioanalytics, Gaithersburg, Md.). Fresh liver tissue was snap frozen in liquid N2, sectioned, and stained with hematoxylin and Oil Red O to visualize triglyceride droplets.
# Consistent with the systemic reduction in adiposity, GPAT inhibition reversed hepatic steatosis in DIO mice. […] Cholesterol levels remained unchanged (FIG. 14d). The resolution of the hepatic steatosis in FSG67 treated mice may have contributed to the normalization of blood glucose levels.
# mtGPAT1 = biological target: T1, mtGPAT1 (Mus musculus, UniProt Q61586); test: In vitro mtGPAT inhibition: acylation of 14C-glycerol 3-phosphate with palmitoyl-CoA, scintillation counting; format: biochemical; details: Table 2, sulfonamides 15a-i and 17a-f; triplicate; read-out: IC50 (μM) ± SD, In Vitro Anti-mtGPAT1 Activity
# T1 construct: from tissue; host or cells: mitochondrial preparation
# T1 sequence (Q61586 1-827): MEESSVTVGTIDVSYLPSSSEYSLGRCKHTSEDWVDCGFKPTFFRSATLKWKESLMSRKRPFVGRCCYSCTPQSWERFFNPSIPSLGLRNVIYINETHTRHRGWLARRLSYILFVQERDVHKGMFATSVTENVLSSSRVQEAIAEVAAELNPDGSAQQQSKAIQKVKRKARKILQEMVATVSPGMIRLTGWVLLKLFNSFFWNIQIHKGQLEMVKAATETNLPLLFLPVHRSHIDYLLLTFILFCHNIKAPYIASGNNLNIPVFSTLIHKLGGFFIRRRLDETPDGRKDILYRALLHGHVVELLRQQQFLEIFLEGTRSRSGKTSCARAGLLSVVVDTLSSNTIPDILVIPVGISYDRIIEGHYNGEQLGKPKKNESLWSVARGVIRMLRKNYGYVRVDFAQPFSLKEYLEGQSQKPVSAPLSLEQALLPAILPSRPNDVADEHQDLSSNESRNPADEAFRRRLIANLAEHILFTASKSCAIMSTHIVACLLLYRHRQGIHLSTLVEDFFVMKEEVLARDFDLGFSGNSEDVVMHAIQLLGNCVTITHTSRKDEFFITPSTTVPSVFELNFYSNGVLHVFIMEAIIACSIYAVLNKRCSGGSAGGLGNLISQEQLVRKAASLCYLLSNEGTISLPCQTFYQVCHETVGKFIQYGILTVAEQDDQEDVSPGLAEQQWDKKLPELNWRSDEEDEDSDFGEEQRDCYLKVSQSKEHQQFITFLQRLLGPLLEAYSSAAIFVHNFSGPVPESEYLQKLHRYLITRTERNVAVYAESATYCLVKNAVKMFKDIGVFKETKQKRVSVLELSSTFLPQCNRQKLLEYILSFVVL
# Method: The compounds produced as described above were evaluated for their ability to inhibit the acylation of glycerol-3-phosphate in vitro. The acylation reaction between ^14C-labelled glycerol-3-phosphate and palmitoyl-CoA, initiated by adding mtGPAT, was measured in the presence of varying concentrations of the inhibitor by scintillation counting as described in more detail below.
# A mitochondrial preparation of glycerol 3-phosphate acyltransferase was added to the incubation mixture containing ^14C-labeled glycerol 3-phosphate, palmitoyl-CoA, and varying inhibitor concentrations to initiate the reaction. After ten min, the reaction was terminated by adding chloroform, methanol, and 1% perchloric acid. Five minutes later, more chloroform and perchloric acid were added, and the upper aqueous layer was removed. After washing three times with 1% perchloric acid, the organic layer was evaporated under nitrogen, and the amount of ^14C present was counted to determine the extent of reaction inhibition. Data points were recorded in triplicate, and IC50 values were calculated based on the amount of test inhibitor necessary to produce 50% of mtGPAT activity observed in the absence of inhibitor but in the presence of DMSO vehicle control.
smiles,measurement,setting,value
"CCCCCCCCCS(=O)(=O)Nc1ccccc1C(=O)O [Compound 15g, 2-(Nonylsulfonamido)benzoic acid]",food consumption,DIO mice [1],0.5 ± 0.1 g
same,"food consumption, % of vehicle control",DIO mice [1],41.6%
same,"liver histology: inflammation, necrosis, hepatocellular injury",DIO mice [2],"No inflammation, necrosis, or hepatocellular injury"
same,reduction in serum triglyceride levels vs pair-fed or vehicle,DIO mice [2],not statistically significant
same,serum glucose,DIO mice [2]; 5 mg/kg ip daily,153.3 ± 10.5 mg/dL
same,serum triglyceride,DIO mice [2]; 5 mg/kg ip daily,111.3 ± 10.9 mg/dL
same,hepatic steatosis (Oil red O liver sections),DIO mice [2]; listed as FSG67,nearly complete resolution; also recorded: almost complete amelioration of fat accumulation
same,serum cholesterol levels,DIO mice [2]; listed as FSG67,unchanged; also recorded: unaffected
same,IC50,mtGPAT1,8.1 µM
